Laboratory results from publication PMC6767236, “Selective Cannabinoid 2 Receptor Agonists as Potential Therapeutic Drugs for the Treatment of Endotoxin-Induced Uveitis” (Molecules, 2019).

What was measured:
[1] = target: T1, human CB2R (Homo sapiens, UniProt P34972); experiment: Radioligand binding assay, human CB2R ([3H]-CP55940)
T1 construct: bgal (beta-galactosidase fragment of the PathHunter system, named only in the cell line's name); host or cells: CHO-K1 (CHOK1hCB2_bgal)
Description: Membrane fractions were prepared from cultured CHOK1hCB1_bgal, CHOK1hCB2_bgal, and CHOK1mCB2_bgal cells (DiscoveRx, Fremont, CA, USA) as previously described. Protein concentration was determined using the Pierce bicinchoninic acid (BCA) protein assay (Rochford, IL, USA) as per the manufacturer’s instructions.
Radio ligand-binding assays were carried out as described by Souethoudt et al. (2018). Briefly, membranes from cells expressing human CB2R or CB1R or mouse CB2R and the radioligand, [^3H]-CP55940 (Perkin Elmer, Basel, Switzerland) was used. […] Membrane aliquots containing 5 µg (CHOK1hCB1_bgal) or 1 µg (CHOK1hCB2_bgal) of membrane protein in 100 µL assay buffer (50 mMTris-HCl, 5 mM MgCl2, 0.1% bovine serum albumin (BSA), pH 7.4) were incubated at 30 °C for 1 h, in presence of 3.5 nM of [^3H]-CP55940 (CHOK1hCB1_bgal) or 1.5 nM [^3H]-CP55940 (CHOK1hCB2_bgal). The incubation was terminated by rapid filtration performed on glass microfibre (GF/C) filters (Whatman International, Maidstone, UK), presoaked for 30 min with 0.25% polyethyleneimine (PEI), and using a Brandel harvester (Brandel, Gaithersburg, MD, USA). Filter-bound radioactivity was determined by scintillation spectrometry using a Tri-Carb 2900 TR liquid scintillation counter (Perkin Elmer, Boston, MA, USA). […] In all receptor binding experiments, nonspecific binding was determined in the presence of 1 µM “cold” agonist.

[2] = pKa; assay type: physicochemical; conditions: read-out: pKa (basic)
[3] = Plasma protein binding (equilibrium dialysis), human plasma; assay type: in vitro ADME; conditions: pH 7.4, read-out: Plasma Protein Binding: FREE Fraction human
Description: Pooled and frozen plasma from selected species were obtained from commercial suppliers […]
(human […] and mouse […]3-C57; BioreclamationIV, NY, USA). Teflon […]
equilibrium dialysis plates (96-well, 150 μL, half-cell capacity) and cellulose membranes (12–14 kDa molecular weight cut-off) were purchased from HT-Dialysis (Gales Ferry, Connecticut). Both biological matrix and phosphate buffer pH were adjusted to 7.4 on the day of the experiment. The reference substance was diazepam.
The determination of unbound compound was performed using a 96-well format equilibrium dialysis device with a molecular weight cut-off membrane of 12 to 14 kDa. […]
At equilibrium, the unbound drug concentration in the biological matrix compartment of the equilibrium dialysis apparatus is the same as the concentration of the compound in the buffer compartment. Thus, the percent unbound fraction was be calculated by determining the compound concentrations in the buffer and matrix compartments after dialysis as follows: % fraction unbound = 100 × buffer concentration after dialysis/matrix concentration after dialysis. […]
P-glycoprotein (permeability-glycoprotein (P-gp), also known as multidrug resistance protein 1) is the most studied and best characterized drug transporter. […] The effect of P-gp was measured by expressing the efflux ratio of the unidirectional A > B and B > A Papp values. […]

T1 sequence (P34972 whole entry, the tested form may be a part): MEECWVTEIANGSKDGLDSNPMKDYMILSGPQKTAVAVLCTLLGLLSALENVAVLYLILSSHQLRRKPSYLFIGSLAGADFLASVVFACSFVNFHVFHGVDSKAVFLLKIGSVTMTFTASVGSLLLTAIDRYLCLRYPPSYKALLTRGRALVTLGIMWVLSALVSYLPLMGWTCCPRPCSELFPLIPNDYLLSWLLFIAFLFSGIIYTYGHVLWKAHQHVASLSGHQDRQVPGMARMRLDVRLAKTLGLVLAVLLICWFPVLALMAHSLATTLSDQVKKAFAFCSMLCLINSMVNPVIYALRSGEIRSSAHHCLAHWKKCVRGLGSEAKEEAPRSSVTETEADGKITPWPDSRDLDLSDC

SMILES | hCB1R Ki/hCB2R Ki [1] | pKa [2] | fraction unbound at 5 h, 1000 nM [3] | Ki ([1]; [3H]-CP55940 displacement, read-out: hCB2R: Ki) [nM]
CCCCCCC(C)(C)c1cc(OC)c(C2=C[C@H]3CC[C@]2(CO)C3(C)C)c(OC)c1 [HU910, {(1S,4R)-2-[2,6-dimethoxy-4-(2-methyloctan-2-yl)phenyl]-7,7-dimethylbicyclo[2.2.1]hept-2-en-1-yl}methanol, reference compound] | 89 | – | – | –
CC(C)(C)c1nc(N2CC[C@H](O)C2)c2nnn(Cc3nnnn3C3CC3)c2n1 [RO6871304, (3S)-1-{5-tert-butyl-3-[(1-cyclopropyl-1H-tetrazol-5-yl)methyl]-3H-[1,2, 3]triazolo[4,5-d]pyrimidin-7-yl}pyrrolidin-3-ol] | – | 2.7 | 0.13 | 17
